Assay results published in the NIST ThermoML archive (doi:10.1016/j.jct.2005.03.016).

Conditions: Liquid, Vibrating tube method

CC1CCCCC1 [methylcyclohexane]
mass density [kg/m3]
Conditions	100 kPa	5000 kPa	10000 kPa	15000 kPa	20000 kPa	25000 kPa	30000 kPa	35000 kPa	40000 kPa	45000 kPa
283.15 K	777.6	781.4	785.2	788.7	792.1	795.3	798.5	801.5	804.4	807.3
293.15 K	769	773	777	780.7	784.3	787.8	791.1	794.2	797.3	800.2
303.15 K	760.4	764.7	768.9	772.8	776.6	780.2	783.7	787	790.2	793.3
313.15 K	751.7	756.2	760.7	764.8	768.8	772.7	776.3	779.8	783.1	786.4
323.15 K	742.9	747.7	752.5	756.9	761.1	765.1	769	772.6	776.1	779.5
333.15 K	733.9	739	744.1	748.8	753.3	757.5	761.5	765.4	769	772.5
343.15 K	724.8	730.4	735.8	740.8	745.6	750	754.2	758.2	762.1	765.7
353.15 K	715.7	721.7	727.4	732.8	737.8	742.5	747	751.2	755.2	759

CCO [ethanol]
mass density [kg/m3]
Conditions	100 kPa	5000 kPa	10000 kPa	15000 kPa	20000 kPa	25000 kPa	30000 kPa	35000 kPa	40000 kPa	45000 kPa
283.15 K	798	802	805.9	809.5	813	816.4	819.7	822.8	825.9	828.8
293.15 K	789.5	793.7	797.8	801.6	805.3	808.9	812.3	815.6	818.7	821.8
303.15 K	780.9	785.3	789.6	793.7	797.5	801.3	804.8	808.2	811.5	814.7
313.15 K	772.1	776.8	781.3	785.6	789.6	793.5	797.2	800.8	804.2	807.6
323.15 K	763.3	768.3	773	777.6	781.8	785.9	789.7	793.5	797.1	800.5
333.15 K	754	759.3	764.3	769.1	773.6	777.8	781.9	785.8	789.5	793.1
343.15 K	744.5	750.1	755.5	760.5	765.3	769.8	774	778.1	782	785.7
353.15 K	–	740.6	746.4	751.7	756.7	761.5	766	770.2	774.3	778.2
